The values below come from patent US20060094763A1, “Polymorphic forms of 6-[2-(methylcarbomoyl) phenyl sulfanyl]-3-E-[2-(pyridin-2-yl)ethenyl]indazole” (Agouron Pharmaceuticals, Inc., priority 2004, published 2006).

A short description of data set [1]: Aqueous solubility of polymorphic forms of Compound 1. The conditions noted are these: for solubility: aqueous medium. The data set is classed as physicochemical.
Data set [2] in a line: Physical and chemical storage stability of polymorphic forms (heat, humidity). The conditions noted are these: for Time stable: 40° C. under 75% relative humidity.
Data set [3] in a line: Salt screening: solubility of in situ acid salts of Compound 1 in 100 mM acid solutions (HPLC). The conditions noted are these: 100 mM acid solution, excess solid. The protocol: To ensure that the maximum solubility level was reached, the samples were checked periodically to ensure that excess solid was present. After 8 days 400 μL of the mixture was removed and centrifuged at 14,000 rpm for 5 minutes. 100 μL of the supernatant was then removed, diluted with 900 μL of a 1:1 mixture of acetonitrile/methanol, and then analyzed by HPLC.

Data set [4] is described as follows: Human metabolites of Compound 1. As to conditions: in vivo. The source says:
The chemical structures of three oxygenated metabolites, M12 (the sulfoxide of Compound 1), M15 (the sulfone of Compound 1) and M9 (a mixed sulfoxidized/N-oxidized product of Compound 1), were confirmed based on the comparison in chromatographic retention times and mass spectra of the in-vivo metabolites to their authentic reference standards. The chemical structure of the glucuronide (M7) of Compound 1 was confirmed by the isolation of the metabolite followed by NMR determination. […] The proposed structures (or elemental compositions) of M5 and its major fragment ions (m/z 342, 311, 265, and 237) were all highly consistent with the elemental compositions determined by accurate mass measurement (with mass measurement accuracy ≦1.2 ppm for all). The definitive structures of metabolites M8a, M12a and M14 are currently unknown.

Converted amounts (≈) assume the structure as drawn.

Regarding `CNC(=O)c1ccccc1Sc1ccc2c(/C=C/c3ccccn3)n[nH]c2c1` [Form I, 6-[2-(methylcarbamoyl)phenylsulfanyl]-3-E-[2-(pyridin-2-yl)ethenyl]indazole], the solubility (in general, the dissolved amount per volume that the medium holds) in data set [1] (pH 2, simulated gastric fluid, pH 2) was 179 µg/mL (≈ 463 µM). Moreover, in data set [1] (pH 6.5), the Aqueous solubility (usually how much of the substance goes into solution per volume) was found to be 9 µg/mL. Further, in data set [2], the Time stable result is listed as “at least 13 days”. For the same molecule, in data set [2] (80° C.), the Chemical stability entry is on record as “chemically stable”.

On to Benzene sulfonic acid, for which the “Solubility 8 days” value in data set [3] (stirred 8 days in the dark) worked out at 10 µg/mL. Moreover, the “Solubility 14 days” value in data set [3] (stirred 14 days in the dark) came to 11 µg/mL.

In the case of `CNC(=O)c1ccccc1Sc1ccc2c(/C=C/c3ccccn3)n[nH]c2c1` [Compound 1, 6-[2-(methylcarbamoyl)phenylsulfanyl]-3-E-[2-(pyridin-2-yl)ethenyl]indazole], the Metabolism in humans entry in data set [4] is reported as “extensive metabolism”.

Regarding `CNC(=O)c1ccccc1Sc1ccc2c(/C=C/c3ccccn3)n[nH]c2c1` [Form IV, 6-[2-(methylcarbamoyl)phenylsulfanyl]-3-E-[2-(pyridin-2-yl)ethenyl]indazole], the solubility is ~550 µg/mL (≈ 1420 µM) in data set [1] (pH 1, simulated gastric fluid, pH 1); ~6 µg/mL (≈ 15.5 µM) in data set [1] (pH 4, aqueous buffer, pH 4); ~2 µg/mL (≈ 5.17 µM) in data set [1] (pH 8, aqueous buffer, pH 8). Besides, the Aqueous solubility entry in data set [1] (pH 2) was “about 157 μg/mL”; in data set [1] (pH 6.5), “about 2 μg/mL”. In addition, in data set [2], the Time stable entry is “at least 30 days”. Moreover, in data set [2] (80° C.), the “Time physically and chemically stable” value was “at least 30 days”.
